Read-outs that look alike come from different tables or passages of the source.

The text below walks through data of paper PMC5987196 (ACS infectious diseases, 2017).

The test system of experiment [1] is AB0057 A. baumannii spp. clinical strain. Description: Disk susceptibility assay. It is filed as cell-based. The settings on record: zone size.
In experiment [2] the target is T1, ADC-7 (Acinetobacter baumannii, UniProt Q6DRA1). Description: Competition kinetics with nitrocefin against ADC-7 β-lactamase. The class given is biochemical.
For experiment [3], the system named is E. coli carrying blaADC37 encoded in pBC SK (−). The experiment is described as follows: Disk susceptibility assay. It is filed as cell-based, Escherichia coli DH10B. Particulars: 10 μg of BAI and 10 μg of ceftazidime per disk, zone size.
Experiment [4] shares this test system. Description: MIC broth microdilution with ceftazidime plus BATSI. Particulars: for MIC broth dilution: CAZ MIC with 10 μg/mL compound, CAZ varied from 0 to 128 μg/mL. The class given is cell-based, Escherichia coli DH10B.
Experiment [5] deals with T1, ADC-7. The settings on record: previously reported value for the lead compound; cited from earlier work.
A further experiment has as its target Pseudomonas PDC-3. The settings on record: class C enzyme lacking Arg340; cited from earlier work.
The next experiment relates to E. coli AmpC. The settings on record: class C enzyme lacking Arg340; cited from earlier work.
The mark [6] stands for this setting: 10 μg of BAI and 10 μg of sulbactam per disk.

As for `O=C(O)Cc1cn(C[C@H](NC(=O)Cc2cccs2)B(O)O)nn1` [3b, (1R)-2-(4-carboxymethyl-[1,2,3]triazol-1-yl)-(2-thienylace-tylamino)ethaneboronic acid], the disk assay in experiment [1] (setting [6]) came to 10 mm; in experiment [3], 18 mm. The “less activity relative to 3a” value on ADC-7 [2] (Ki compared with 3a) came to 3 fold. Further, the MIC broth dilution in experiment [4] worked out at 2 µg/mL.

With `O=C(Cc1cccs1)N[C@@H](Cn1cc(-c2nn[nH]n2)nn1)B(O)O` [3h, (1R)-2-[4-(2H-tetrazol-5-yl)-[1,2,3]triazol-1-yl]-1-(2-thienylacetylamino)ethaneboronic acid], the disk assay in experiment [1] (setting [6]) was found to be 10 mm; in experiment [3], 23 mm.

The Ki is the dissociation constant of the complex between target and ligand, obtained from inhibition or displacement. In the case of `O=C(Cc1cccs1)N[C@@H](Cn1cc(C(=O)O)nn1)B(O)O` [3a, (1R)-2-[4-carboxy-[1,2,3]triazol-1-yl]-1-(2-thienylace-tylamino)ethaneboronic acid], the disk assay is 16 mm in experiment [1] (setting [6]) and 26 mm in experiment [3]. Further, the MIC broth dilution in experiment [4] is 1 µg/mL. Also, at ADC-7 [5], the Ki is 44 nM.

As to `CC1(C)[C@H](C(=O)O)N2C(=O)C[C@H]2S1(=O)=O` [SUL, sulbactam, reference compound], the disk assay result in experiment [1] (SUL alone, 10 μg) is listed as “SUL 6 mm”; in experiment [1] (SUL alone, 10 μg, listed as sulbactam), 6 mm.

Turning to `O=C(Cc1cccs1)N[C@H](B(O)O)c1cccc(C(=O)O)c1` [SM23, reference compound], the figures for the disk assay in experiment [1] (setting [6]) and in experiment [3] were 12 mm and 25 mm, respectively. The Ki at Pseudomonas PDC-3 is 4 nM; in the experiment on E. coli AmpC it was 1 nM. For the same molecule, the MIC broth dilution in experiment [4] turned out to be 1 µg/mL.

On to “(1R)-2-(4-idroxycarbamoyl-[1,2,3]triazol-1-yl)-1-(2-thienylacetylamino)ethaneboronic acid [3e]”, for which the disk assay in experiment [1] (setting [6]) is 8 mm; in experiment [3] it was 16 mm. The MIC broth dilution in experiment [4] came out at 2 µg/mL.

For the molecule `O=C(Cc1cccs1)N[C@@H](Cc1cccc(C(=O)O)c1)B(O)O` [EC04, reference compound], the disk assay in experiment [1] (setting [6]) came out at 11 mm; in experiment [3], 21 mm. Besides, the Ki was 220 nM on Pseudomonas PDC-3 and 1 nM in the experiment on E. coli AmpC. In addition, in experiment [4], the MIC broth dilution was determined as 2 µg/mL.

Take “(1R)-2-(4-carboxamido-[1,2,3]triazol-1-yl)-1-(2-thienylacetylamino)ethaneboronate [3d]”: the disk assay worked out at 10 mm in experiment [1] (setting [6]) and 18 mm in experiment [3]. Also, the MIC broth dilution in experiment [4] came out at 4 µg/mL.

Consider `O=C(Cc1cccs1)N[C@@H](Cn1cc(-c2cccc(-c3nn[nH]n3)c2)nn1)B(O)O` [3j, (1R)-2-[4-(3-(2H-tetrazol-5-yl)phenyl)-[1,2,3]triazol-1-yl]-1-(2-thienylacetylamino)ethaneboronate], for which the disk assay was 6 mm in experiment [1] (setting [6]) and 15 mm in experiment [3]. Moreover, the MIC broth dilution in experiment [4] is 8 µg/mL.

A word on the MIC: it is the lowest concentration that inhibits growth of the organism. In the case of `CC(C)(O/N=C(\C(=O)N[C@@H]1C(=O)N2C(C(=O)[O-])=C(C[n+]3ccccc3)CS[C@H]12)c1csc(N)n1)C(=O)O` [CAZ, ceftazidime, reference compound], the MIC in experiment [4] (Escherichia coli, read-out: MIC broth dilution) is 32 µg/mL.

For `O=C(Cc1cccs1)N[C@@H](Cn1cc(-c2cccc(C(=O)O)c2)nn1)B(O)O` [3c, (1R)-2-[4-(3-carboxyphenyl)-[1,2,3]triazol-1-yl]-1-(2-thienylacetylamino)ethaneboronic acid], the disk assay was 15 mm in experiment [1] (setting [6]) and 24 mm in experiment [3]. This molecule came in with a Ki on ADC-7 [2] of 46 ± 3 nM.
